Assay results: ChEMBL document CHEMBL6134827, “The discovery of novel antimicrobial peptides against drug-resistant bacteria based on fragments fusion strategy” (Eur J Med Chem, 2025)
Starred links: 1 amine or outer side, 2 acyl side, 3 side chain; linkers in the order of their positions; H or OH if unused. Positions of bridges follow the written chain, without caps; N, C: chain ends. Non-standard residues stand in square brackets, D forms with d. Residues, ends and D or L forms follow the SMILES beside them. Groups on a side chain read outwards from the residue. *: point of attachment. εLys = N[C@@H](CCCCN[*:1])C(=O)[*:2]; X1 = CC[C@H](C)CCCCC(=O)*; Dab = NCC[C@H](N)C(=O)O

How the values were obtained:
[1] = Cytotoxicity against human BEAS-2B cells assessed as inhibition of cell growth measured after 24 hrs by CCK-8 assay; assay type: toxicity, cell-based
Acinetobacter baumannii = experiment: Antimicrobial activity against multidrug resistant Acinetobacter baumannii assessed as inhibition of visible microbial growth incubated for 18 hrs by broth microdilution method; assay type: functional
Pseudomonas aeruginosa [2] = experiment: Antimicrobial activity against multidrug resistant Pseudomonas aeruginosa assessed as inhibition of visible microbial growth incubated for 18 hrs by broth microdilution method; assay type: functional
L02 = experiment: Cytotoxicity against human LO2 cells assessed as reduction in cell viability at 2 to 64 microg/mL measured after 24 hrs by CCK-8 assay; assay type: toxicity, cell-based; details: l02, 24 h, dose 2-64 µg/ml
Escherichia coli [3] = experiment: Antimicrobial activity against multidrug resistant Escherichia coli assessed as inhibition of visible microbial growth incubated for 18 hrs by broth microdilution method; assay type: functional
[4] = Hemolytic activity in human red blood cell assessed as hemolysis at 128 microg/ml measured after 1 hrs by microplate reader assay relative to control; assay type: toxicity, cell-based, Erythrocyte; details: red blood cells, at 128 µg/mL, read-out: Activity
Staphylococcus aureus [5] = experiment: Antimicrobial activity against Staphylococcus aureus ATCC 29213 assessed as inhibition of visible microbial growth incubated for 18 hrs by broth microdilution method; assay type: functional
BEAS-2B = experiment: Cytotoxicity against human BEAS-2B cells assessed as reduction in cell viability at 2 to 64 microg/mL measured after 24 hrs by CCK-8 assay; assay type: toxicity, cell-based; details: dose 2-64 µg/ml
Staphylococcus aureus [6] = experiment: Antimicrobial activity against multidrug resistant Staphylococcus aureus assessed as inhibition of visible microbial growth incubated for 18 hrs by broth microdilution method; assay type: functional
Escherichia coli [7] = experiment: Antimicrobial activity against Escherichia coli ATCC 25922 assessed as inhibition of visible microbial growth incubated for 18 hrs by broth microdilution method; assay type: functional
Pseudomonas aeruginosa [8] = experiment: Drug resistance, ratio of MIC for multidrug resistant Pseudomonas aeruginosa after 14 passages to MIC for multidrug resistant Pseudomonas aeruginosa after first exposure; assay type: functional
[9] = Cytotoxicity against HEK293T cells assessed as survival rate at 64 microg/ml measured after 24 hrs by CCK-8 assay relative to control; assay type: toxicity, cell-based, HEK-293T; details: human, at 64 µg/mL, read-out: Survival
[10] = Cytotoxicity against human BEAS-2B cells assessed as survival rate at 64 microg/ml measured after 24 hrs by CCK-8 assay relative to control; assay type: toxicity, cell-based; details: at 64 µg/mL, read-out: Survival
[11] = Cytotoxicity against human LO2 cells assessed as survival rate at 64 microg/ml measured after 24 hrs by CCK-8 assay relative to control; assay type: toxicity, cell-based, L02; details: at 64 µg/mL, read-out: Survival

| Molecule | CC50 at 24 h [1] [µg/mL] | MIC (Acinetobacter baumannii) [µM] | MIC (Pseudomonas aeruginosa [2]) | Activity (L02) | MIC (Escherichia coli [3]) [µM] | hemolysis at 1 h, 128 µg/mL [4] [%] | MIC (Staphylococcus aureus [5]) [µM] | Activity (BEAS-2B) | MIC (Staphylococcus aureus [6]) [µM] | MIC (Escherichia coli [7]) [µM] | Ratio (Pseudomonas aeruginosa [8]) | viability at 24 h, 64 µg/mL [9] [%] | viability at 24 h, 64 µg/mL [10] [%] | viability at 24 h, 64 µg/mL [11] [%] |
| --- | --- | --- | --- | --- | --- | --- | --- | --- | --- | --- | --- | --- | --- | --- |
| H-GLRKWLRKFKKFW-OH | 38.4 | 4.5 | 4.5 µM | Toxic | 4.5 | < 10 | 17.8 | Toxic | 17.8 | 8.9 |  |  |  |  |
| CC(C)C[C@H](NC(=O)CN)C(=O)N[C@@H](CCCNC(=N)N)C(=O)N[C@@H](CCCCN)C(=O)N[C@@H](Cc1c[nH]c2ccccc12)C(=O)N[C@@H](CC(C)C)C(=O)N[C@@H](CCCNC(=N)N)C(=O)N[C@@H](CCCCN)C(=O)N[C@@H](Cc1ccccc1)C(=O)N[C@@H](CCN)C(=O)N[C@@H](CCN)C(=O)N[C@@H](Cc1ccccc1)C(=O)N[C@@H](Cc1c[nH]c2ccccc12)C(=O)O (H-GLRKWLRKF[Dab][Dab]FW-OH) |  | 4.6 | 4.6 µM |  | 9.2 |  | 18.4 |  | 9.2 | 9.2 |  |  |  |  |
| CC(C)CCCCC(=O)N[C@@H](CCN)C(=O)N[C@H](C(=O)N[C@@H](CCN)C(=O)N[C@H]1CCNC(=O)[C@H]([C@@H](C)O)NC(=O)[C@H](CCN)NC(=O)[C@H](CCN)NC(=O)[C@H](CC(C)C)NC(=O)[C@@H](Cc2ccccc2)NC(=O)[C@H](CCN)NC1=O)[C@@H](C)O.CC[C@H](C)CCCCC(=O)N[C@@H](CCN)C(=O)N[C@H](C(=O)N[C@@H](CCN)C(=O)N[C@H]1CCNC(=O)[C@H]([C@@H](C)O)NC(=O)[C@H](CCN)NC(=O)[C@H](CCN)NC(=O)[C@H](CC(C)C)NC(=O)[C@@H](Cc2ccccc2)NC(=O)[C@H](CCN)NC1=O)[C@@H](C)O (X1-[Dab]T[Dab][Dab][Dab][dF]L[Dab][Dab]T; lactam 4-C) |  | 0.8 | 2 µg/mL |  | 0.8 |  |  |  |  | 0.4 | 4 |  |  |  |
| H-GLRKRLRKFKKFGK-OH |  | 72.7 | > 72.7 µM |  | 72.7 |  | 72.7 |  | > 72.7 | 72.7 |  |  |  |  |
| H-GLRKFLRKFKKFWK-OH |  | 8.5 | 17 µM |  | 17 |  | 34 |  | 34 | 8.5 |  |  |  |  |
| CC(C)C[C@H](NC(=O)CN)C(=O)N[C@@H](CCCNC(=N)N)C(=O)N[C@@H](CCCCN)C(=O)N[C@@H](Cc1c[nH]c2ccccc12)C(=O)N[C@@H](CC(C)C)C(=O)N[C@@H](CCCNC(=N)N)C(=O)N[C@@H](CCN)C(=O)N[C@@H](Cc1ccccc1)C(=O)N[C@@H](CCN)C(=O)N[C@@H](CCN)C(=O)N[C@@H](Cc1ccccc1)C(=O)N[C@@H](Cc1c[nH]c2ccccc12)C(=O)O (H-GLRKWLR[Dab]F[Dab][Dab]FW-OH) |  | 4.7 | 4.7 µM |  | 4.7 |  | 4.7 |  | 9.4 | 9.4 |  |  |  |  |
| H-GLRKFLRKFKKFGK-OH |  | 36.5 | 73 µM |  | 36.5 |  | 36.5 |  | 73 | 18.2 |  |  |  |  |
| CC(C)C[C@H](NC(=O)CN)C(=O)N[C@@H](CCCNC(=N)N)C(=O)N[C@@H](CCCCN)C(=O)N[C@@H](Cc1c[nH]c2ccccc12)C(=O)N[C@@H](CC(C)C)C(=O)N[C@@H](CCCNC(=N)N)C(=O)NCCCC[C@H](N)C(=O)N[C@@H](Cc1ccccc1)C(=O)N[C@@H](CCCCN)C(=O)N[C@@H](CCCCN)C(=O)N[C@@H](Cc1ccccc1)C(=O)N[C@@H](Cc1c[nH]c2ccccc12)C(=O)O (H-GLRKWLR[εLys]FKKFW-OH) |  | 35.7 | 17.9 µM |  | 35.7 |  | 35.7 |  | 35.7 | 17.9 |  |  |  |  |
| CC(C)C[C@H](NC(=O)CN)C(=O)N[C@@H](CCCNC(=N)N)C(=O)N[C@@H](CCCCN)C(=O)N[C@@H](Cc1c[nH]c2ccccc12)C(=O)N[C@@H](CC(C)C)C(=O)N[C@@H](CCCNC(=N)N)C(=O)N[C@@H](CCCCN)C(=O)N[C@@H](Cc1ccccc1)C(=O)NCCCC[C@H](N)C(=O)N[C@@H](CCCCN)C(=O)N[C@@H](Cc1ccccc1)C(=O)N[C@@H](Cc1c[nH]c2ccccc12)C(=O)O (H-GLRKWLRKF[εLys]KFW-OH) |  | 17.9 | 8.9 µM |  | 35.7 |  | 17.9 |  | 17.9 | 8.9 |  |  |  |  |
| CC(C)C[C@H](NC(=O)CN)C(=O)N[C@@H](CCCNC(=N)N)C(=O)N[C@@H](CCCCN)C(=O)N[C@@H](Cc1c[nH]c2ccccc12)C(=O)N[C@@H](CC(C)C)C(=O)N[C@@H](CCCNC(=N)N)C(=O)N[C@@H](CCCCN)C(=O)N[C@@H](Cc1ccccc1)C(=O)N[C@@H](CCCCN)C(=O)NCCCC[C@H](N)C(=O)N[C@@H](Cc1ccccc1)C(=O)N[C@@H](Cc1c[nH]c2ccccc12)C(=O)O (H-GLRKWLRKFK[εLys]FW-OH) |  | 17.9 | 8.9 µM |  | 35.7 |  | 17.9 |  | 17.9 | 4.5 |  |  |  |  |
| CC(C)C[C@H](NC(=O)CN)C(=O)N[C@@H](CCCNC(=N)N)C(=O)N[C@@H](CCN)C(=O)N[C@@H](Cc1c[nH]c2ccccc12)C(=O)N[C@@H](CC(C)C)C(=O)N[C@@H](CCCNC(=N)N)C(=O)N[C@@H](CCCCN)C(=O)N[C@@H](Cc1ccccc1)C(=O)N[C@@H](CCCCN)C(=O)N[C@@H](CCCCN)C(=O)N[C@@H](Cc1ccccc1)C(=O)N[C@@H](Cc1c[nH]c2ccccc12)C(=O)O (H-GLR[Dab]WLRKFKKFW-OH) |  | 4.5 | 4.5 µM |  | 9.1 |  | 18.1 |  | 18.1 | 9.1 |  |  |  |  |
| CC(C)C[C@H](NC(=O)CN)C(=O)N[C@@H](CCCNC(=N)N)C(=O)N[C@H](CCCCN)C(=O)N[C@@H](Cc1c[nH]c2ccccc12)C(=O)N[C@@H](CC(C)C)C(=O)N[C@@H](CCCNC(=N)N)C(=O)N[C@@H](CCN)C(=O)N[C@@H](Cc1ccccc1)C(=O)N[C@@H](CCCCN)C(=O)N[C@@H](CCCCN)C(=O)N[C@@H](Cc1ccccc1)C(=O)N[C@@H](Cc1c[nH]c2ccccc12)C(=O)O |  | 4.5 | 4.5 µM |  | 9.1 |  | 18.1 |  | 18.1 | 18.1 |  |  |  |  |
| CC(C)C[C@H](NC(=O)CN)C(=O)N[C@@H](CCCNC(=N)N)C(=O)NCCCC[C@H](N)C(=O)N[C@@H](Cc1c[nH]c2ccccc12)C(=O)N[C@@H](CC(C)C)C(=O)N[C@@H](CCCNC(=N)N)C(=O)N[C@@H](CCCCN)C(=O)N[C@@H](Cc1ccccc1)C(=O)N[C@@H](CCCCN)C(=O)N[C@@H](CCCCN)C(=O)N[C@@H](Cc1ccccc1)C(=O)N[C@@H](Cc1c[nH]c2ccccc12)C(=O)O (H-K([Arg-Leu-Gly])WLRKFKKFW-OH) |  | 35.7 | 8.9 µM |  | 35.7 |  | 35.7 |  | 35.7 | 8.9 |  |  |  |  |
| CC(C)C[C@H](NC(=O)CN)C(=O)N[C@@H](CCCNC(=N)N)C(=O)N[C@@H](CCCCN)C(=O)N[C@@H](Cc1c[nH]c2ccccc12)C(=O)N[C@@H](CC(C)C)C(=O)N[C@@H](CCCNC(=N)N)C(=O)N[C@@H](CCCCN)C(=O)N[C@@H](Cc1ccccc1)C(=O)N[C@@H](CCN)C(=O)N[C@@H](CCCCN)C(=O)N[C@@H](Cc1ccccc1)C(=O)N[C@@H](Cc1c[nH]c2ccccc12)C(=O)O (H-GLRKWLRKF[Dab]KFW-OH) |  | 4.5 | 4.5 µM |  | 4.5 |  | 18.1 |  | 18.1 | 9.1 |  |  |  |  |
| CC(C)C[C@H](NC(=O)CN)C(=O)N[C@@H](CCN)C(=O)N[C@@H](CCN)C(=O)N[C@@H](Cc1c[nH]c2ccccc12)C(=O)N[C@@H](CC(C)C)C(=O)N[C@@H](CCN)C(=O)N[C@@H](CCN)C(=O)N[C@@H](Cc1ccccc1)C(=O)N[C@@H](CCN)C(=O)N[C@@H](CCN)C(=O)N[C@@H](Cc1ccccc1)C(=O)N[C@@H](Cc1c[nH]c2ccccc12)C(=O)O (H-GL[Dab][Dab]WL[Dab][Dab]F[Dab][Dab]FW-OH) | > 64 | 5.1 | 10.2 µM |  | 10.2 | < 10 | 5.1 |  | 5.1 | 5.1 |  | > 80 | > 80 | > 80 |
| H-GLRKWLRKFKKFWK-OH |  | 8.3 | 8.3 µM |  | 8.3 |  | 16.6 |  | 16.6 | 8.3 |  |  |  |  |
| CC(C)C[C@H](NC(=O)CN)C(=O)N[C@@H](CCCNC(=N)N)C(=O)N[C@@H](CCCCN)C(=O)N[C@@H](Cc1c[nH]c2ccccc12)C(=O)N[C@@H](CC(C)C)C(=O)N[C@@H](CCCNC(=N)N)C(=O)N[C@@H](CCCCN)C(=O)N[C@@H](Cc1ccccc1)C(=O)N[C@@H](CCCCN)C(=O)N[C@@H](CCN)C(=O)N[C@@H](Cc1ccccc1)C(=O)N[C@@H](Cc1c[nH]c2ccccc12)C(=O)O (H-GLRKWLRKFK[Dab]FW-OH) |  | 4.5 | 4.5 µM |  | 4.5 |  | 9.1 |  | 18.1 | 9.1 |  |  |  |  |
